Series [1] can be described thus: Crystal form conversion test of crystalline adefovir dipivoxil (Experimental Example 1, X-ray diffraction). The format is physicochemical. As to conditions: overall conclusion: 40 °C, relative humidity 75%, 3 days, then drying at 60 °C.
The conditions of series [2]: pH 2.0; cited from earlier work.

As for `CC(C)(C)C(=O)OCOP(=O)(COCCn1cnc2c(N)ncnc21)OCOC(=O)C(C)(C)C` [신규결정형], the “crystal form conversion depending on storage conditions” value in series [1] was “결정형이 전환”. For `CC(C)(C)C(=O)OCOP(=O)(COCCn1cnc2c(N)ncnc21)OCOC(=O)C(C)(C)C` [아데포비어 디피복실, 9-[2-[[{bis(pivaloyloxy)-methoxy}phosphinyl]methoxy]ethyl]adenine], the “solubility class (BCS)” value in series [2] is on record as “높은 용해도(High solubility)”.

The values are drawn from patent publication KR20100138114A, “안정성이 향상된 무정형 아데포비어 디피복실 고체분산체 및 이의 제조방법” (대원제약주식회사, priority 2009, dated 2010).
